Reference: patent US7875647B2, “Heteroaryl-pyrazole derivatives as cannabinoid CB1 receptor antagonists” (Green Cross Corporation, priority 2006, dated 2011)

Target: T1, Cannabinoid-1 receptor (CB1R) (Rattus norvegicus, UniProt P20272)
T1 construct: The tissue obtained from the brain of SD rats was homogenized; from tissue; host or cells: brain of SD rats (membrane pellet of the homogenate)
Test: Cannabinoid-1 receptor (CB1R) binding affinity assay ([3H]CP-55940, rat CB-1 receptor binding protocol)
Conditions: IC50(nM), brain tissue of SD rats, [3H]CP-55940, 30° C. 60 min

T1 sequence (P20272 whole entry): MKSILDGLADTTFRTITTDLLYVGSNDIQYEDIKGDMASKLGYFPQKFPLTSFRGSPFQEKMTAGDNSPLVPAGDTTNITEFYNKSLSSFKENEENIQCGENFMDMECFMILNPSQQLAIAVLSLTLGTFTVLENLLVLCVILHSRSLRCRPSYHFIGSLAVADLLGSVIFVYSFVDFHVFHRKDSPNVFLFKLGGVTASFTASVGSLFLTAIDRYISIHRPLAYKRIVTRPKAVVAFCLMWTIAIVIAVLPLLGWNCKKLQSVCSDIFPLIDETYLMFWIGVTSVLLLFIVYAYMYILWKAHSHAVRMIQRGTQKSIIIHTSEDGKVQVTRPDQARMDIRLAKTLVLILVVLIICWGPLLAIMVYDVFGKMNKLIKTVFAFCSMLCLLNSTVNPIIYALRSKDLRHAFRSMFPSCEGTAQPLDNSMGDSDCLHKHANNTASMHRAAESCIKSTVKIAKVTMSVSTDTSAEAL

SMILES | IC50
C=C(C)c1c(-c2nnc(C(C)(C)C)o2)nn(-c2ccc(Cl)cc2Cl)c1-c1ccc(Br)cc1 [Example 220, 2-(5-(4-bromophenyl)-1-(2,4-dichlorophenyl)-4-(prop-1-en-2-yl)-1H-pyrazol-3-yl)-5-tert-butyl-1,3,4-oxadiazole] | 8.26 nM
C=Cc1c(-c2nnc(C(C)(C)C)o2)nn(-c2ccc(Cl)cc2Cl)c1-c1ccc(Br)cc1 [Example 228, 2-(5-(4-bromophenyl)-1-(2,4-dichlorophenyl)-4-vinyl-1H-pyrazol-3-yl)-5-tert-butyl-1,3,4-oxadiazole] | 16.6 nM

Same assay, conditions: brain tissue of SD rats, [3H]CP-55940, 30° C. 60 min; read-out: IC50

SMILES | IC50
CC(C)(C)c1nnc(-c2nn(-c3ccc(Cl)cc3Cl)c(-c3ccc(Cl)cc3)c2CF)o1 [Example 221, 2-tert-butyl-5-(5-(4-chlorophenyl)-1-(2,4-dichlorophenyl)-4-(fluoromethyl)-1H-pyrazol-3-yl)-1,3,4-oxadiazole] | 14.7 nM
CC(C)(C)c1nnc(-c2nn(-c3ccc(Cl)cc3Cl)c(-c3ccc(Br)cc3)c2CF)o1 [Example 222, 2-(5-(4-bromophenyl)-1-(2,4-dichlorophenyl)-4-(fluoromethyl)-1H-pyrazol-3-yl)-5-tert-butyl-1,3,4-oxadiazole] | 7.99 nM
FCc1c(-c2nnc(C3(c4ccc(Cl)cc4)CC3)o2)nn(-c2ccc(Cl)cc2Cl)c1-c1ccc(Cl)cc1 [Example 223, 2-(5-(4-chlorophenyl)-1-(2,4-dichlorophenyl)-4-(fluoromethyl)-1H-pyrazol-3-yl)-5-(1-(4-chlorophenyl)cyclopropyl)-1,3,4-oxadiazole] | 7.89 nM
CC(C)(C)c1nnc(-c2nn(-c3ccc(Cl)cc3Cl)c(-c3ccc(Cl)cc3)c2C(F)F)o1 [Example 224, 2-tert-butyl-5-(5-(4-chlorophenyl)-1-(2,4-dichlorophenyl)-4-(difluoromethyl)-1H-pyrazol-3-yl)-1,3,4-oxadiazole] | 36.1 nM
FC(F)c1c(-c2nnc(C3(c4ccc(Cl)cc4)CC3)o2)nn(-c2ccc(Cl)cc2Cl)c1-c1ccc(Cl)cc1 [Example 225, 2-(5-(4-chlorophenyl)-1-(2,4-dichlorophenyl)-4-(difluoromethyl)-1H-pyrazol-3-yl)-5-(1-(4-chlorophenyl)cyclopropyl)-1,3,4-oxadiazole] | 12.1 nM
COC(C)c1c(-c2nnc(C(C)(C)C)o2)nn(-c2ccc(Cl)cc2Cl)c1-c1ccc(Cl)cc1 (stereo not drawn) [Example 226, 2-tert-butyl-5-(5-(4-chlorophenyl)-1-(2,4-dichlorophenyl)-4-(1-methoxyethyl)-1H-pyrazol-3-yl)-1,3,4-oxadiazole] | 62.7 nM
C=Cc1c(-c2nnc(C(C)(C)C)o2)nn(-c2ccc(Cl)cc2Cl)c1-c1ccc(Cl)cc1 [Example 227, 2-tert-butyl-5-(5-(4-chlorophenyl)-1-(2,4-dichlorophenyl)-4-vinyl-1H-pyrazol-3-yl)-1,3,4-oxadiazole] | 16.9 nM
C=Cc1c(-c2nnc(C3(c4ccc(Cl)cc4)CC3)o2)nn(-c2ccc(Cl)cc2Cl)c1-c1ccc(Cl)cc1 [Example 229, 2-(5-(4-chlorophenyl)-1-(2,4-dichlorophenyl)-4-vinyl-1H-pyrazol-3-yl)-5-(1-(4-chlorophenyl)cyclopropyl)-1,3,4-oxadiazole] | 14.1 nM
COC(=O)NC(C)c1c(-c2nnc(C(C)(C)C)o2)nn(-c2ccc(Cl)cc2Cl)c1-c1ccc(Br)cc1 (stereo not drawn) [Example 230, Methyl 1-(5-(4-bromophenyl)-3-(5-tert-butyl-1,3,4-oxadiazol-2-yl)-1-(2,4-dichlorophenyl)-1H-pyrazol-4-yl)ethylcarbamate] | 9.01 nM
COC(=O)NC(C)c1c(-c2nnc(C3(c4ccc(Cl)cc4)CC3)o2)nn(-c2ccc(Cl)cc2Cl)c1-c1ccc(Cl)cc1 (stereo not drawn) [Example 231, Methyl 1-(5-(4-chlorophenyl)-3-(5-(1-(4-chlorophenyl)cyclopropyl)-1,3,4-oxadiazol-2-yl)-1-(2,4-dichlorophenyl)-1H-pyrazol-4-yl)ethylcarbamate] | 4.06 nM
